Test results taken from PubChem BioAssay (NCI).
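All cell lines were grown in 96-well plates and treated with compound for 48 hours. Here, GI50 denotes the concentration required for 50% inhibition of growth. The concentration for full growth arrest is given as TGI.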

How the values were obtained:
Experiment in all cases: NCI-60 cell line screen, 48 h
[1] = system: NCI-H522 lung
[2] = system: HCT-15 colon
[3] = system: 786-0 renal
[4] = system: SK-MEL-5 melanoma
[5] = system: SNB-19 CNS
[6] = system: NCI-H23 lung
[7] = system: UACC-62 melanoma
[8] = system: SW-620 colon
[9] = system: COLO 205 colon
[10] = system: OVCAR-8 ovarian
[11] = system: HL-60(TB) leukemia
[12] = system: U251 CNS
[13] = system: NCI-H460 lung
[14] = system: OVCAR-3 ovarian
[15] = system: UACC-257 melanoma
[16] = system: OVCAR-4 ovarian
[17] = system: MDA-MB-435
[18] = system: NCI/ADR-RES ovarian
[19] = system: MCF7 breast

Row | SMILES | TGI [1] [µM] | TGI [2] [µM] | TGI [3] [µM] | TGI [4] [µM] | TGI [5] [µM] | TGI [6] [µM] | TGI [7] [µM] | TGI [8] [µM] | TGI [9] [µM] | TGI [10] [µM] | TGI [11] [µM] | TGI [12] [µM] | TGI [13] [µM] | TGI [14] [µM] | TGI [15] [µM] | TGI [16] [µM] | TGI [17] [µM] | TGI [18] [µM] | TGI [19] [µM] | GI50 [2] [µM]
1 | O=C1C=C(N2CCCC2)C=C(N2CCCC2)C1 | > 100 | > 100 | > 100 | > 100 | > 100 | > 100 | > 100 | > 100 | > 100 | > 100 | > 100 | > 100 | > 100 | > 100 | > 100 | – | – | – | – | –
2 | O=C1Nc2cccc3ncn(c23)C2=C1CCCC2 | > 100 | > 100 | > 100 | > 100 | > 100 | > 100 | > 100 | > 100 | > 100 | > 100 | > 100 | > 100 | > 100 | – | > 100 | – | – | – | – | –
3 | COc1cc(C2C(Cl)C(=O)N2n2cnc3ccccc3c2=O)cc(OC)c1OC (stereo not drawn) | > 100 | > 100 | > 100 | > 100 | > 100 | > 100 | > 100 | > 100 | > 100 | > 100 | > 100 | > 100 | > 100 | > 100 | > 100 | > 100 | – | – | – | –
4 | CNNC1=NS(=O)(=O)c2cc(C)c(Cl)cc2S1 | > 10 | > 10 | > 10 | > 10 | > 10 | > 10 | > 10 | > 10 | > 10 | > 10 | > 10 | > 10 | > 10 | > 10 | > 10 | > 10 | > 10 | > 10 | – | –
5 | CCN(CC)CCNC(=O)c1ccc([N+](=O)[O-])cc1OC | > 100 | > 100 | > 100 | > 100 | > 100 | > 100 | > 100 | > 100 | > 100 | > 100 | > 100 | > 100 | > 100 | > 100 | > 100 | > 100 | – | – | – | –
6 | O=C(NCCN1C(=O)CN=C(c2ccc(Cl)cc2)c2cc(Cl)ccc21)OCc1ccccc1 | 49.9 | 44.6 | 28.9 | 30.2 | 50.8 | 33.8 | 38.7 | > 100 | 50.4 | 38.3 | 38.1 | 30.1 | 32.4 | 26 | 34.1 | 22.6 | 32.9 | 35.7 | – | –
7 | CSC(SC)=C1C(=O)NN=C1C | > 100 | > 100 | > 100 | > 100 | > 100 | > 100 | > 100 | > 100 | > 100 | – | > 100 | > 100 | > 100 | > 100 | > 100 | > 100 | > 100 | – | > 100 | –
8 | O=c1[nH]c2cc(C(F)(F)F)ccc2nc1Cc1ccccc1 | – | > 100 | > 100 | > 100 | > 100 | 68.8 | > 100 | > 100 | > 100 | > 100 | > 100 | > 100 | > 100 | – | > 100 | > 100 | > 100 | > 100 | > 100 | –
9 | CCOc1cc(/C=N\N(C)C)cc(/C=N\N(C)C)c1O | – | > 100 | > 100 | 73.2 | > 100 | > 100 | > 100 | > 100 | 34.3 | 56.2 | > 100 | 89.9 | > 100 | > 100 | > 100 | > 100 | > 100 | > 100 | – | –
10 | CSc1c(C(=O)Nc2ccc(C)cc2)c(N)nn1-c1ccccc1 | > 100 | > 100 | 45 | > 100 | > 100 | > 100 | > 100 | > 100 | > 100 | – | > 100 | > 100 | 42.9 | > 100 | > 100 | > 100 | > 100 | – | > 100 | –
11 | COCCOCN(C(=O)C1=CCC2(CC1)OCCO2)c1ccccc1I | – | > 50 | > 50 | > 50 | > 50 | > 50 | > 50 | > 50 | > 50 | > 50 | – | > 50 | > 50 | > 50 | > 50 | > 50 | > 50 | > 50 | > 50 | –
12 | CC(=O)O[C@H]1C(=O)[C@@]2(C)C([C@H](OC(=O)c3ccccc3)[C@]3(O)C[C@H](OC(=O)[C@H](O)[C@H](NC(=O)c4ccccc4)c4ccc(Cl)cc4)C(C)=C1C3(C)C)C1(OC(C)=O)CO[C@@H]1C[C@@H]2O (stereo partly drawn) | 0.00369 | > 100 | 28.1 | 1.76 | 45.3 | – | 0.00418 | 18.3 | 0.00842 | 61.9 | – | – | – | 0.0124 | – | 22.1 | – | – | – | 0.0583
13 | O=C(O)c1cccc(S(=O)(=O)NN2C(=O)CSC2c2ccccc2)c1 (stereo not drawn) | > 100 | > 100 | > 100 | > 100 | > 100 | > 100 | > 100 | > 100 | > 100 | > 100 | > 100 | > 100 | > 100 | > 100 | > 100 | – | > 100 | – | > 100 | –
14 | O=C1CC2CC=C[C@H]3c4cc5c(cc4C(=O)N1C23)OCO5 (stereo partly drawn) | > 50 | > 50 | > 50 | – | > 50 | > 50 | > 50 | > 50 | > 50 | > 50 | > 50 | > 50 | > 50 | > 50 | > 50 | – | – | – | – | –
15 | CCOc1ccc(N2C(=O)C3c4[nH]c5ccccc5c4C4CCC(C(C)(C)C)CC4C3C2=O)cc1 (stereo not drawn) | > 100 | > 100 | > 100 | > 100 | > 100 | > 100 | > 100 | > 100 | > 100 | > 100 | > 100 | > 100 | – | – | > 100 | > 100 | – | – | – | –
16 | O=S(=O)(c1cc(Cl)ccc1Cl)N1CCN(c2ccc(Cl)c(Cl)c2)CC1 | 56.5 | > 100 | 34.3 | 51.5 | 32.1 | > 100 | – | > 100 | – | 51.4 | > 100 | 54.8 | – | 38.5 | 92.7 | 32.4 | – | – | > 100 | –
17 | O=C(Cc1ccccc1)NN1C(=O)C(Cl)C1c1cccc(O)c1 (stereo not drawn) | 23.2 | 42.7 | 31.5 | – | > 100 | 35.2 | – | 16.7 | 32.9 | 35.1 | 32.8 | 24.4 | 36.4 | 28.1 | 35 | 40 | – | – | – | –
18 | Cc1ccc(S(=O)(=O)NC(=O)NC(CO)C(=O)O)cc1 (stereo not drawn) | > 100 | > 100 | > 100 | > 100 | > 100 | > 100 | > 100 | > 100 | > 100 | > 100 | > 100 | > 100 | > 100 | – | > 100 | > 100 | – | > 100 | > 100 | –
19 | O=C(O)C(CS)NCc1c2ccccc2[n+]([O-])c2ccccc12 (stereo not drawn) | > 100 | > 100 | > 100 | > 100 | > 100 | > 100 | > 100 | > 100 | > 100 | > 100 | 57 | > 100 | > 100 | > 100 | > 100 | 86.6 | – | – | – | –
20 | Cc1c(NC(=O)C(=O)N=NC(=O)c2ccncc2)c(O)c2ccccc2c1O | 26.2 | 26.9 | 59.2 | 5.8 | 48.3 | 23.5 | 6.07 | 33 | 32.3 | 52.1 | > 67.5 | 28.1 | 16.8 | 29.1 | 24.2 | 27.5 | – | – | – | –
21 | N[C@H]1C2C3CC4C5CC(C42)C1(c1ccccc1)C53 (stereo partly drawn) | > 100 | > 100 | > 100 | > 100 | > 100 | > 100 | > 100 | > 100 | > 100 | > 100 | > 100 | > 100 | > 100 | > 100 | – | > 100 | – | – | – | –
22 | O=[N+]([O-])c1cccc(N=C2c3ccccc3CN2c2cccc([N+](=O)[O-])c2)c1 | > 100 | > 100 | > 100 | > 100 | > 100 | > 100 | > 100 | > 100 | > 100 | > 100 | – | > 100 | > 100 | > 100 | > 100 | > 100 | > 100 | – | > 100 | –
